In patent US20260083743A1, “NUCLEOSIDE DERIVATIVE FOR PREVENTING AND TREATING INFLAMMATION AND APPLICATION THEREOF” (WEST CHINA HOSPITAL OF SICHUAN UNIVERSITY, priority 2019, published 2026):

Experiments:
[1] = tested on: arthritis model; assay: Improvement effect on arthritis, sodium iodoacetate knee joint model in SD rats; format: in vivo; design: Pathological tissue score (joint): scale not given here; conditions: gavage every day 100 mg/kg/d; 4th week after operation; n = 10
Procedure: In this example, the improvement effect of compounds 1˜19 prepared in example 1 on arthritic was measured. (1) Animals: SD rats, four rates in one cage, were fed under the conditions of constant temperature (25±2° C.) and illumination control (12 h day/night circulation). The animals were fed with standard feed, and fed for at least 7 days to adapt environment before the experiment. […] (3) SD rats were fasted for 12 hours before operation, and weighed and recorded prior to operation. The blank control group was not treated any more. […] After anesthesia, they were fixed in the supine position. 0.1 ml of 1 g/L sodium iodoacetate solution was injected into the knee joint. From the fifth day, the animals were driven to run for 30 minutes every day, and they were allowed to move freely in the cage the rest of the time. After modeling, indomethacin and compounds 1˜19 were given by gavage every day at the dose of 100 mg/kg/d. The blank control group and the model control group were given equal volume of isotonic saline. At the 4th week after operation, the articular fluid of rats in each group was extracted to measure the content of MMP-13. The rats were killed, and the subchondral bone plate of the inner condyle of the tibia of the right knee was cut and processed into specimens, and pathological scores were made.

[2] = tested on: mouse hepatitis model; assay: Improvement effect on hepatitis, concanavalin A (ConA) mouse hepatitis model; format: in vivo, Blab/c mice; conditions: gavage 50 mg/kg, n = 10
Procedure: In this example, the improvement effect of compounds 1 19 prepared in example 1 on […] measured. (1) Animals: Adult and Healthy Male Blab/c Mice, 25 30 g. […] The blank control group was injected with equal volume of isotonic saline. After modeling, indomethacin and compounds 1 19 were given by gavage every day at the dose of 50 mg/kg. The blank control group and the model control group were given equal volume of isotonic saline. Eyeball blood and liver tissue were taken at 6 h, 12 h, 24 h and 48 h after administration. The levels of serum alanine aminotransferase (ALT) and aspartate aminotransferase (AST) were measured.

[3] = tested on: sodium taurocholate-induced pancreatitis model; assay: Improvement effect on pancreatitis, sodium taurocholate-induced model in mice; format: in vivo, Blab/c mice; design: Pancreatic histopathological injury score: scale not given here; conditions: 17.5 mg/kg caudal vein 1 h, 3 h and 6 h after model construction; after 24 hours; n = 10
Excerpt: In this example, the improvement effect of compounds 1 19 prepared in example 1 on […] measured. (1) Animals: Adult and Healthy Male Blab/c Mice, 25 30 g. […] A model was made with sodium taurocholate. […] After anesthesia, the surgical site was sterilized with an alcohol cotton ball. The sterile gauze was placed on the surgical site. A laparotomy was made at the width of two fingers under the xiphoid process. After seeing the liver, an incision was made, the cotton swab soaked in normal saline was stretched into the enterocoelia, the duodenum was sought on the back of the liver, turned out and placed on the sterile gauze, the pancreaticobiliary duct and duodenal papilla were sought, and the needle of 1 mL syringe was used to pierce a hole on the along the direction of the nipple, a 24 G indwelling needle tube was inserted into the pancreatic duct along the nipple, and the common bile duct below the liver was closed with an arterial vascular clip, with a dose of 0.1 mL/100 g and 0.1 mL/min inject sodium taurocholate with a concentration of 3.8% at a flow rate. During this process, pay attention to adding saline to the exposed pancreas and duodenum to keep it moist. After the injection, the tube was slowly taken out and the bile duct was continued to be closed. The main tube was removed from the vascular artery clip 3 minutes later, the duodenum was also accommodated, and the abdominal cavity was sutured in double layers. The blank control group was injected with equal volume of isotonic saline. […] The blank control group and the model control group were given equal volume of isotonic saline. After 24 hours, pancreatic tissue and blood samples were taken, and the pancreatic histopathological injury score and the level of pancreatic amylase in serum were evaluated.

Row | Structure (SMILES) | MMP-13 content in joint fluid [1] [mg/L] | Pathological tissue score (joint) [1] | Aspartate aminotransferase (AST) ([2]; 6 h after administration) [U/L] | Serum alanine aminotransferase (ALT) ([2]; 6 h after administration) [U/L] | Aspartate aminotransferase (AST) ([2]; 12 h after administration) [U/L] | Serum alanine aminotransferase (ALT) ([2]; 12 h after administration) [U/L] | Aspartate aminotransferase (AST) ([2]; 24 h after administration) [U/L] | Serum alanine aminotransferase (ALT) ([2]; 24 h after administration) [U/L] | Aspartate aminotransferase (AST) ([2]; 48 h after administration) [U/L] | Serum alanine aminotransferase (ALT) ([2]; 48 h after administration) [U/L] | Amylopsin (pancreatic amylase level in serum) [3] [KU/L] | Pancreatic histopathological injury score [3]
1 | CCC(=O)OCCn1c(=O)c2c(ncn2C)n(C)c1=O [Compound 9, 1-(propionic acid-2-ethyl)-3,7-dimethylxanthine] | 97 ± 7 | 0.6 ± 0.2 | 78 ± 7 | 78 ± 8 | 123 ± 8 | 110 ± 13 | 142 ± 13 | 175 ± 18 | 131 ± 14 | 123 ± 12 | 5 ± 3 | 0.5 ± 0.4
2 | CC(C)C(=O)OCCn1c(=O)c2c(ncn2C)n(C)c1=O [Compound 10, 1-(isopropyl acid-2-ethyl)-3,7-dimethylxanthine] | 91 ± 8 | 0.7 ± 0.4 | 87 ± 9 | 83 ± 8 | 167 ± 19 | 132 ± 13 | 189 ± 15 | 186 ± 19 | 176 ± 17 | 154 ± 17 | 7 ± 5 | 0.6 ± 0.4
3 | CNCCn1c(=O)c2c(ncn2C)n(C)c1=O [Compound 11, 1-(2-methylaminoethyl)-3,7-dimethylxanthine] | 86 ± 5 | 0.3 ± 0.3 | 48 ± 7 | 54 ± 6 | 89 ± 8 | 92 ± 9 | 112 ± 12 | 142 ± 14 | 95 ± 9 | 110 ± 13 | 5 ± 3 | 0.5 ± 0.2
4 | CCNCCn1c(=O)c2c(ncn2C)n(C)c1=O [Compound 12, 1-(2-ethylaminoethyl)-3,7-dimethylxanthine] | 83 ± 8 | 0.3 ± 0.4 | 58 ± 7 | 76 ± 8 | 93 ± 9 | 113 ± 12 | 121 ± 19 | 162 ± 16 | 102 ± 9 | 121 ± 13 | 4 ± 2 | 0.4 ± 0.5
5 | CC(C)NCCn1c(=O)c2c(ncn2C)n(C)c1=O [Compound 13, 1-(2-isopropylaminoethyl)-3,7-dimethylxanthine] | 98 ± 5 | 0.3 ± 0.5 | 63 ± 7 | 87 ± 9 | 102 ± 12 | 121 ± 13 | 132 ± 13 | 172 ± 17 | 93 ± 9 | 143 ± 12 | 6 ± 2 | 1.8 ± 0.2
6 | CCCNCCn1c(=O)c2c(ncn2C)n(C)c1=O [Compound 14, 1-(2-propylaminoethyl)-3,7-dimethylxanthine] | 93 ± 7 | 0.7 ± 0.3 | 65 ± 7 | 56 ± 8 | 93 ± 12 | 134 ± 15 | 152 ± 15 | 193 ± 12 | 119 ± 12 | 132 ± 13 | 5 ± 3 | 1.9 ± 0.4
7 | CC(=O)CCn1c(=O)c2c(ncn2C)n(C)c1=O [Compound 15, 1-(2-acetylethyl)-3,7-dimethylxanthine] | 91 ± 7 | 0.6 ± 0.5 | 65 ± 7 | 65 ± 8 | 118 ± 18 | 171 ± 15 | 198 ± 18 | 218 ± 26 | 129 ± 9 | 132 ± 12 | 5 ± 4 | 1.6 ± 0.4
8 | CCC(=O)CCn1c(=O)c2c(ncn2C)n(C)c1=O [Compound 16, 1-(2-propionylethyl)-3,7-dimethylxanthine] | 93 ± 9 | 0.4 ± 0.3 | 59 ± 7 | 61 ± 8 | 93 ± 11 | 101 ± 16 | 121 ± 12 | 132 ± 12 | 103 ± 9 | 104 ± 13 | 5 ± 2 | 1.8 ± 0.3
9 | CC(C)C(=O)NCCn1c(=O)c2c(ncn2C)n(C)c1=O [Compound 17] | 99 ± 6 | 0.5 ± 0.5 | 65 ± 5 | 79 ± 8 | 102 ± 12 | 145 ± 13 | 119 ± 12 | 163 ± 16 | 107 ± 11 | 142 ± 15 | 10 ± 3 | 1.5 ± 0.4
